Test: mn = molality of the nth substance listed, in mol/kg
Conditions: 101 kPa, Liquid; for viscosity: Falling or rolling sphere viscometry; for speed of sound: Frequency=3 MHz, Single path-length method; for mass density: Vibrating tube method

NNC(=O)c1ccncc1 [isonicotinic acid hydrazide] + O
Conditions	mass density [kg/m3]	speed of sound [m/s]	viscosity [mPa·s]
293.15 K, m1 = 0.0255	999.11	1485.3	1.006
293.15 K, m1 = 0.0494	999.92	1486.9	1.012
293.15 K, m1 = 0.0754	1000.8	1488.6	1.018
293.15 K, m1 = 0.1	1001.64	–	1.024
293.15 K, m1 = 0.1253	1002.5	1491.8	1.03
293.15 K, m1 = 0.15	1003.35	1493.4	1.037
293.15 K, m1 = 0.2002	1005.07	1496.5	1.049
293.15 K, m1 = 0.2492	1006.75	1499.4	1.062
293.15 K, m1 = 0.3001	1008.5	1502.4	1.075
293.15 K, m1 = 0.3489	1010.18	1505.1	1.088
293.15 K, m1 = 0.4003	1011.96	1507.9	1.102
298.15 K, m1 = 0.0255	997.93	1498.6	0.8937
298.15 K, m1 = 0.0494	998.74	1500.2	0.8984
298.15 K, m1 = 0.0754	999.61	1501.9	0.9036
298.15 K, m1 = 0.1	1000.45	–	0.9086
298.15 K, m1 = 0.1253	1001.3	1505.1	0.9138
298.15 K, m1 = 0.15	1002.14	1506.6	0.9191
298.15 K, m1 = 0.2002	1003.84	1509.7	0.9298
298.15 K, m1 = 0.2492	1005.51	1512.6	0.9401
298.15 K, m1 = 0.3001	1007.25	1515.6	0.951
298.15 K, m1 = 0.3489	1008.91	1518.4	0.9616
298.15 K, m1 = 0.4003	1010.67	1521.3	0.9729
303.15 K, m1 = 0.0255	996.53	1510.1	0.8001
303.15 K, m1 = 0.0494	997.34	1511.6	0.804
303.15 K, m1 = 0.0754	998.21	1513.3	0.8084
303.15 K, m1 = 0.1	999.03	–	0.8125
303.15 K, m1 = 0.1253	999.88	1516.4	0.8169
303.15 K, m1 = 0.15	1000.71	1517.9	0.8213
303.15 K, m1 = 0.2002	1002.4	1521	0.8301
303.15 K, m1 = 0.2492	1004.05	1523.9	0.8389
303.15 K, m1 = 0.3001	1005.77	1526.9	0.8482
303.15 K, m1 = 0.3489	1007.42	1529.7	0.8571
303.15 K, m1 = 0.4003	1009.16	1532.6	0.8661
308.15 K, m1 = 0.0255	994.92	1521.4	0.7213
308.15 K, m1 = 0.0494	995.72	1522.9	0.7246
308.15 K, m1 = 0.0754	996.58	1524.5	0.7282
308.15 K, m1 = 0.1	997.4	–	0.7317
308.15 K, m1 = 0.1253	998.25	1527.6	0.7353
308.15 K, m1 = 0.15	999.08	1529.1	0.7389
308.15 K, m1 = 0.2002	1000.75	1532.2	0.7463
308.15 K, m1 = 0.2492	1002.39	1535.1	0.7537
308.15 K, m1 = 0.3001	1004.1	1538.1	0.7612
308.15 K, m1 = 0.3489	1005.74	1540.9	0.7687
308.15 K, m1 = 0.4003	1007.46	1543.8	0.7765
313.15 K, m1 = 0.0255	993.1	1528.4	0.6545
313.15 K, m1 = 0.0494	993.89	1529.8	0.6572
313.15 K, m1 = 0.0754	994.75	1531.4	0.6602
313.15 K, m1 = 0.1	995.57	–	0.6632
313.15 K, m1 = 0.1253	996.41	1534.4	0.6663
313.15 K, m1 = 0.15	997.23	1535.8	0.6693
313.15 K, m1 = 0.2002	998.9	1538.8	0.6756
313.15 K, m1 = 0.2492	1000.53	1541.7	0.6818
313.15 K, m1 = 0.3001	1002.22	1544.6	0.6882
313.15 K, m1 = 0.3489	1003.84	1547.3	0.6944
313.15 K, m1 = 0.4003	1005.55	1550.2	0.7007
318.15 K, m1 = 0.0255	991.08	1534.5	0.5987
318.15 K, m1 = 0.0494	991.87	1535.9	0.6009
318.15 K, m1 = 0.0754	992.73	1537.4	0.6034
318.15 K, m1 = 0.1	993.54	–	0.6058
318.15 K, m1 = 0.1253	994.38	1540.3	0.6084
318.15 K, m1 = 0.15	995.19	1541.7	0.611
318.15 K, m1 = 0.2002	996.85	1544.5	0.6163
318.15 K, m1 = 0.2492	998.46	1547.3	0.6215
318.15 K, m1 = 0.3001	1000.14	1550.2	0.6268
318.15 K, m1 = 0.3489	1001.75	1552.9	0.6321
318.15 K, m1 = 0.4003	1003.44	1555.7	0.6375

O [water] + NNC(=O)c1ccncc1
m2 = 0
Conditions	mass density [kg/m3]	speed of sound [m/s]	viscosity [mPa·s]
293.15 K	–	1483.6	1.002
298.15 K	–	–	0.8903
303.15 K	–	1508.4	0.7973
308.15 K	994.07	–	0.719
313.15 K	–	1526.8	0.6526
318.15 K	–	1533	0.5972
